Data published in patent publication US10640495B2, “Heterocycle derivatives having TrkA inhibitory activity” (Shionogi & Co., Ltd., priority 2015, dated 2020).
Like-named read-outs stand apart in the source and are kept apart here.

Target: human TrkA (Homo sapiens (Human), UniProt P04629)
Assay: Human TrkA inhibition assay (Test Example 2)
Assay type: biochemical
Outline: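 Mobility-shift readout of phosphorylated versus unphosphorylated fluorescent peptide gave conversion ratio, normalized to DMSO and no-enzyme wells; IC50 by logistic fit of 10- or 15-point 3-fold dilutions. Conditions: 1 nmol/L enzyme, 15 min compound preincubation, then 500 μmol/L ATP plus 1.5 μmol/L peptide, 120 min, 37 °C.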

[1] = Table 154, human TrkA inhibition, read-out: IC50
[2] = Table 152, human TrkA inhibition, read-out: IC50_nM
[3] = Table 153, human TrkA inhibition, read-out: IC50
[4] = Table 157, human TrkA inhibition, read-out: IC50
[5] = Table 156, human TrkA inhibition, read-out: IC50
[6] = Table 155, human TrkA inhibition, read-out: IC50
[7] = human TrkA 1 nmol/L, ATP 500 μmol/L, 120 min at 37° C., read-out: IC50 values (TrkA phosphorylation inhibition)

human TrkA, sequence (P04629 440-796): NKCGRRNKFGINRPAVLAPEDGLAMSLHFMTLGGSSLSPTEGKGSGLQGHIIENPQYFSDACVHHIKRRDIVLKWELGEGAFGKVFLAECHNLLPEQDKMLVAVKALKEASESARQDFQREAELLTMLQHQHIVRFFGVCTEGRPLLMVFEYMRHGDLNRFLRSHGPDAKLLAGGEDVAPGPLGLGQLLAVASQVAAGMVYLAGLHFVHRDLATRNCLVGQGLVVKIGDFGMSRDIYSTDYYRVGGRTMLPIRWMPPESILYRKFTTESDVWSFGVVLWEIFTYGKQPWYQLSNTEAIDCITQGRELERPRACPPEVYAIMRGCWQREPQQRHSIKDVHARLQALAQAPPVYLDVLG

SMILES: COCCN1C[C@@H](NC(=O)Nc2c(C)c(-c3ccn4c(C)nnc4c3)nn2-c2ccccc2)[C@H](c2ccc(F)cc2)O1 (racemic) [Compound I-284]
- IC50 [1]: < 100 nM

SMILES: COCCN1C[C@@H](NC(=O)Nc2c(C)c(-c3cnc4nc(C)nn4c3)nn2-c2ccccc2)[C@H](c2ccc(F)c(F)c2)O1 (racemic) [Compound I-43]
- IC50 [2]: < 100 nM

SMILES: CCNC(=O)c1cc(-c2nn(-c3ccccc3)c(NC(=O)N[C@@H]3CN(CCOC)O[C@H]3c3ccnc(F)c3)c2C)cn(C)c1=O (racemic) [Compound I-107]
- IC50 [3]: < 100 nM

SMILES: COCCN1C[C@@H](NC(=O)Nc2c(C)c(-c3ccnc(C(=O)OCc4ccccc4)c3)nn2-c2ccccc2)[C@H](c2ccc(F)c(F)c2)O1 (racemic) [Compound I-76]
- IC50 [3]: < 100 nM

SMILES: COCCC1C[C@H](NC(=O)Nc2c(C)c(-c3cnn(C)c3)nn2-c2ccccc2)[C@@H](c2ccccc2)O1 (stereo partly drawn) [Compound I-17]
- IC50 [2]: > 1000 nM

SMILES: COCCN1C[C@@H](NC(=O)Nc2c(C)c(-c3cnc4c(c3)nnn4C)nn2-c2ccccc2)[C@H](c2ccc(F)c(F)c2)O1 (racemic) [Compound I-126]
- IC50 [3]: < 100 nM

SMILES: COCCN1C[C@@H](NC(=O)Nc2c(C)c(CO[Si](C)(C)C(C)(C)C)nn2-c2ccccc2)[C@H](c2ccc(F)c(F)c2)O1 [Compound I-605]
- IC50 [4]: 100 to 1000 nM

SMILES: COCCN1C[C@@H](NC(=O)Nc2c(C)c(OCC3CN(C)CCO3)nn2-c2ccccc2)[C@H](c2ccc(F)c(F)c2)O1 (single isomer, unassigned) [Compound I-579]
- IC50 [5]: < 100 nM

SMILES: COCCN1C[C@@H](NC(=O)Nc2c(C)c(CN(C)C)nn2-c2ccccc2)[C@H](c2ccc(F)c(F)c2)O1 [Compound I-640]
- IC50 [4]: 100 to 1000 nM

SMILES: CNC(=O)c1cc(-c2nn(-c3ccccc3)c(NC(=O)N[C@@H]3CN(CCOC)O[C@H]3c3ccnc(F)c3)c2C)cnc1OC [Compound I-191]
- IC50 [1]: < 100 nM

SMILES: COCC[C@@H]1C[C@@H](NC(=O)Nc2c(C)c(-c3cnc(N(C)C(=O)OC(C)(C)C)nc3)nn2-c2ccccc2)[C@H](c2ccnc(F)c2)O1 [Compound I-289]
- IC50 [1]: < 100 nM

SMILES: COCCN1C[C@@H](NC(=O)Nc2c(C)c(-c3cnc4c(c3)ncn4C3CCN(C)CC3)nn2-c2ccccc2)[C@H](c2ccnc(F)c2)O1 (racemic) [Compound I-426]
- IC50 [6]: < 100 nM

SMILES: CNC(=O)c1ncc(-c2nn(-c3ccccc3)c(NC(=O)N[C@@H]3CN(CCOC)O[C@H]3c3ccnc(F)c3)c2C)cc1C (racemic) [Compound I-166]
- IC50 [7]: 4.8 nM

SMILES: COCCN1C[C@@H](NC(=O)Nc2c(C)c(-c3cnc(N4CCC5(CC4)COC5)nc3)nn2-c2ccccc2)[C@H](c2ccnc(F)c2)O1 (racemic) [Compound I-484]
- IC50 [6]: < 100 nM

SMILES: COCCN1C[C@@H](NC(=O)Nc2c(C)c(-c3cnc4c(c3)CN(C(C)=O)CC4)nn2-c2ccccc2)[C@H](c2ccnc(F)c2)O1 (racemic) [Compound I-439]
- IC50 [6]: < 100 nM

SMILES: CCNC(=O)c1cc(-c2nn(-c3ccccc3)c(NC(=O)N[C@@H]3CN(CCOC)O[C@H]3c3ccnc(F)c3)c2C)cnc1OC (racemic) [Compound I-110]
- IC50 [3]: < 100 nM

SMILES: COCCN1C[C@@H](NC(=O)Nc2c(C)c(-c3cnn(C)c3)nn2-c2ccccc2)[C@H](c2cnc(F)c(F)c2)O1 [Compound I-245]
- IC50 [7]: 3 nM

SMILES: CCN1C[C@@H](NC(=O)Nc2c(C)c(-c3cnc(C(=O)NC)c(F)c3)nn2-c2ccccc2)[C@H](c2ccc(F)c(F)c2)O1 (racemic) [Compound I-613]
- IC50 [4]: < 100 nM

SMILES: COCCN1C[C@@H](NC(=O)Nc2c(C)c(-c3cccc(CN=S(C)(C)=O)c3)nn2-c2ccccc2)[C@H](c2ccc(F)c(F)c2)O1 [Compound I-333]
- IC50 [6]: < 100 nM

SMILES: COCCN1C[C@@H](NC(=O)Nc2c(C)c(-c3cnn(C)c3)nn2Cc2ccccc2)[C@H](c2ccc(F)c(F)c2)O1 [Compound I-492]
- IC50 [6]: > 1000 nM

SMILES: COCCN1C[C@@H](NC(=O)Nc2c(C)c(-c3cnc4c(c3)c(CN3CCC(F)(F)C3)nn4C)nn2-c2ccccc2)[C@H](c2ccnc(F)c2)O1 (racemic) [Compound I-423]
- IC50 [6]: < 100 nM

SMILES: COCCN1C[C@@H](NC(=O)Nc2c(C)c(Oc3ccnc(C(F)(F)F)c3)nn2-c2ccccc2)[C@H](c2ccnc(F)c2)O1 (racemic) [Compound I-441]
- IC50 [6]: 100 to 1000 nM

SMILES: COCCN1C[C@@H](NC(=O)Nc2c(C)c(-c3ccc4nc(C)nn4c3)nn2-c2ccccc2)[C@H](c2ccnc(F)c2)O1 [Compound I-359]
- IC50 [6]: < 100 nM

SMILES: CCN1C[C@@H](NC(=O)Nc2c(C)c(OCC(=O)NCCO)nn2-c2ccccc2)[C@H](c2ccc(F)c(F)c2)O1 (racemic) [Compound I-651]
- IC50 [4]: < 100 nM

SMILES: COCCN1C[C@@H](NC(=O)Nc2c(C)c(-c3cnc4c(c3)nc(C(N)=O)n4C)nn2-c2ccccc2)[C@H](c2ccnc(F)c2)O1 (racemic) [Compound I-219]
- IC50 [1]: < 100 nM

SMILES: COCCN1C[C@@H](NC(=O)Nc2c(C)c(-c3cnc4c(cnn4C)n3)nn2-c2ccccc2)[C@H](c2ccnc(F)c2)O1 (racemic) [Compound I-432]
- IC50 [6]: < 100 nM

SMILES: COCCN1C[C@@H](NC(=O)Nc2c(C)c(-c3ccnc(C(=O)NO)c3)nn2-c2ccccc2)[C@H](c2ccnc(F)c2)O1 (racemic) [Compound I-230]
- IC50 [1]: < 100 nM

SMILES: COCCN1C[C@@H](NC(=O)Nc2c(C)c(-c3cnc(N4CC(N(C)C)C4)nc3)nn2-c2ccccc2)[C@H](c2ccnc(F)c2)O1 (racemic) [Compound I-582]
- IC50 [4]: < 100 nM

SMILES: COCCN1C[C@@H](NC(=O)Nc2c(C)c(-c3cnc(N4CC(O)C4)nc3)nn2-c2ccccc2)[C@H](c2cc(F)nc(F)c2)O1 (racemic) [Compound I-321]
- IC50 [6]: < 100 nM

SMILES: COCCN1C[C@@H](NC(=O)Nc2c(C)c(-c3ccnc(C(=O)NOC)c3)nn2-c2ccccc2)[C@H](c2ccc(F)c(F)c2)O1 (racemic) [Compound I-198]
- IC50 [1]: < 100 nM

SMILES: COCCN1C[C@@H](NC(=O)Nc2c(C)c(-c3cnc4c(c3)c(C(=O)N3CCN(C)CC3)nn4C)nn2-c2ccccc2)[C@H](c2ccnc(F)c2)O1 (racemic) [Compound I-377]
- IC50 [6]: < 100 nM

SMILES: COCCN1C[C@@H](NC(=O)Nc2c(C)c(-c3cnc(OC)nc3)nn2-c2ccccc2)[C@H](c2cnc(Cl)s2)O1 (racemic) [Compound I-157]
- IC50 [3]: < 100 nM

SMILES: COCCN1C[C@@H](NC(=O)Nc2c(C)c(-c3cnc(OC)c(C(=O)NC4CCOCC4)c3)nn2-c2ccc(F)c(F)c2)[C@H](c2ccc(F)c(F)c2)O1 (racemic) [Compound I-182]
- IC50 [1]: < 100 nM

SMILES: CCN1CCC(NC(=O)c2cc(-c3nn(-c4ccccc4)c(NC(=O)N[C@@H]4C[C@@H](CCOC)O[C@H]4c4ccc(F)c(F)c4)c3C)ccn2)CC1 (racemic) [Compound I-64]
- IC50 [3]: < 100 nM

SMILES: COCCN1C[C@@H](NC(=O)Nc2c(C)c(OC3CN(C)C3)nn2-c2ccccc2)[C@H](c2ccc(F)c(F)c2)O1 [Compound I-600]
- IC50 [4]: < 100 nM

SMILES: COCCN1C[C@@H](NC(=O)Nc2c(C)c(-c3cnc(N4CCN(C)CC4)nc3)nn2-c2ccccc2)[C@H](c2ccnc(F)c2)O1 (racemic) [Compound I-379]
- IC50 [6]: < 100 nM

SMILES: CCN1C[C@@H](NC(=O)Nc2c(C)c(OCCC3CCN(C(=O)OC(C)(C)C)C3)nn2-c2ccccc2)[C@H](c2ccc(F)c(F)c2)O1 (stereo partly drawn) [Compound I-597]
- IC50 [4]: < 100 nM

SMILES: COCCN1C[C@@H](NC(=O)Nc2c(C)c(-c3cnc4c(c3)nnn4C)nn2-c2ccccc2)[C@H](c2ccnc(F)c2)O1 [Compound I-342]
- IC50 [6]: < 100 nM

SMILES: COCCN1C[C@@H](NC(=O)Nc2c(C)c(-c3cnc4c(c3)nnn4C)nn2-c2ccccc2)[C@H](c2cnc(F)c(F)c2)O1 (racemic) [Compound I-127]
- IC50 [3]: < 100 nM

SMILES: COCCN1C[C@@H](NC(=O)Nc2c(C)c(-c3cnn(C)c3)nn2-c2ccccc2)[C@H](c2ccc(F)cc2)O1 (racemic) [Compound I-116]
- IC50 [3]: < 100 nM

SMILES: COCC[C@@H]1C[C@@H](NC(=O)Nc2c(C)c(-c3cnc(NC4CC4)nc3)nn2-c2ccccc2)[C@H](c2ccnc(F)c2)O1 [Compound I-293]
- IC50 [1]: < 100 nM

SMILES: CCN1C[C@@H](NC(=O)Nc2c(C)c(OCCCC(=O)NCCO)nn2-c2ccccc2)[C@H](c2ccc(F)c(F)c2)O1 (racemic) [Compound I-668]
- IC50 [4]: < 100 nM

SMILES: CCN1CCC(NC(=O)c2cc(-c3nn(-c4ccccc4)c(NC(=O)N[C@@H]4CN(CCOC)O[C@H]4c4ccc(F)c(F)c4)c3C)ccn2)CC1 (racemic) [Compound I-62]
- IC50 [3]: < 100 nM

SMILES: COCCN1C[C@@H](NC(=O)Nc2c(C)c(-c3cnc4c(c3)nc(C(=O)NC3CCN(C)CC3)n4C)nn2-c2ccccc2)[C@H](c2ccnc(F)c2)O1 (racemic) [Compound I-404]
- IC50 [6]: < 100 nM

SMILES: COCC[C@@H]1C[C@@H](NC(=O)Nc2c(C)c(-c3cnc4c(c3)c(C)nn4C)nn2-c2ccccc2)[C@H](c2ccnc(F)c2)O1 [Compound I-274]
- IC50 [1]: < 100 nM

SMILES: COCCC1C[C@@H](NC(=O)Nc2c(C)c(C3=CCN(C(=O)OC(C)(C)C)CC3)nn2-c2ccccc2)[C@H](c2ccccc2)O1 (stereo partly drawn) [Compound I-20]
- IC50 [2]: < 100 nM

SMILES: COCCN1C[C@@H](NC(=O)Nc2c(C)c(-c3cnc(C)nc3)nn2-c2ccccc2)[C@H](c2cnc(F)c(F)c2)O1 [Compound I-358]
- IC50 [6]: < 100 nM

SMILES: COCCN1C[C@@H](NC(=O)Nc2c(C)c(-c3ccc(OC)cc3)nn2-c2ccccc2)[C@H](c2ccnc(F)c2)O1 (racemic) [Compound I-554]
- IC50 [5]: < 100 nM

SMILES: CCN1C[C@@H](NC(=O)Nc2c(C)c(OCC3CCN(C(=O)COC)CC3)nn2-c2ccccc2)[C@H](c2ccc(F)c(F)c2)O1 (racemic) [Compound I-608]
- IC50 [4]: < 100 nM

SMILES: COCCN1C[C@@H](NC(=O)Nc2c(C)c(-c3ccc4c(cnn4C)c3)nn2-c2ccccc2)[C@H](c2ccc(F)c(F)c2)O1 (racemic) [Compound I-22]
- IC50 [7]: 0.81 nM

SMILES: COCCN1C[C@@H](NC(=O)Nc2c(C)c(-c3cc(C(N)=O)c(=O)n(C)n3)nn2-c2ccccc2)[C@H](c2ccnc(F)c2)O1 (racemic) [Compound I-301]
- IC50 [1]: < 100 nM
